Source: PMC11951083, “Highly Specific Miniaturized Fluorescent Monoacylglycerol Lipase Probes Enable Translational Research” (Journal of the American Chemical Society, 2025)

Columns and labels:
5-HT transporter (h) = 5-HT transporter (h) (Homo sapiens, UniProt P31645); test: 5-HT transporter (h) (antagonist radioligand); settings: read-out: Inhibition 5-HT transporter (h) (antagonist radioligand)
A1 (h) = target: T1, A1 (h) (Homo sapiens, UniProt P30542); test: A1 (h) (agonist radioligand); settings: read-out: Inhibition A1 (h) (agonist radioligand)
T1 sequence (P30542 1-326): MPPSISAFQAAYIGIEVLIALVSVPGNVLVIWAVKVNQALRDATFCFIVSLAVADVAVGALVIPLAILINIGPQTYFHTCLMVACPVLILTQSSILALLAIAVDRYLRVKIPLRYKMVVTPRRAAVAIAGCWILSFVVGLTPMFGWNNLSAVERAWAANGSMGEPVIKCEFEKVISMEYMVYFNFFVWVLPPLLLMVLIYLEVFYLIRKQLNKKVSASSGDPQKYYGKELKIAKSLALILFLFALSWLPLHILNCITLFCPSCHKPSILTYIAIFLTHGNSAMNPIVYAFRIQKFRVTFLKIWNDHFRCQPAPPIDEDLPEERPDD

COX2(h) = target: T2, COX2(h) (Homo sapiens, UniProt P35354); test: COX2(h); settings: read-out: Inhibition COX2(h)
T2 sequence (P35354 18-604): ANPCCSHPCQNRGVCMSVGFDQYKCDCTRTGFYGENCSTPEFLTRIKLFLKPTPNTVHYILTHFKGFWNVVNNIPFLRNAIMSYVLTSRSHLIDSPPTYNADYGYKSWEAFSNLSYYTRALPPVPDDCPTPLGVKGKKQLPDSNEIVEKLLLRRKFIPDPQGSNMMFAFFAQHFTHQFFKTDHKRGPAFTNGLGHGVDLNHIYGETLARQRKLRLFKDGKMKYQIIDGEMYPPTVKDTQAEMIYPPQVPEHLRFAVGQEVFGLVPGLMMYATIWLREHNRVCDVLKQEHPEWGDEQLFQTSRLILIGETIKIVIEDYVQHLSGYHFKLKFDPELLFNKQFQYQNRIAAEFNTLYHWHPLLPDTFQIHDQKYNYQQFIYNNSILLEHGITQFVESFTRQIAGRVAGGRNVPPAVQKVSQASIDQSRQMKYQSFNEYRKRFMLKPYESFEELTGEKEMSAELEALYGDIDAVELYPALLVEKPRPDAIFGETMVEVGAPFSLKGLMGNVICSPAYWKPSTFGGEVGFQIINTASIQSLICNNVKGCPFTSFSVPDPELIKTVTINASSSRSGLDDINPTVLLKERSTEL

mu (MOP) (h) = mu (MOP) (h) (Homo sapiens, UniProt P35372); test: mu (MOP) (h) (agonist radioligand); settings: read-out: Inhibition mu (MOP) (h) (agonist radioligand)
Chain of mu (MOP) (h) (P35372 whole entry): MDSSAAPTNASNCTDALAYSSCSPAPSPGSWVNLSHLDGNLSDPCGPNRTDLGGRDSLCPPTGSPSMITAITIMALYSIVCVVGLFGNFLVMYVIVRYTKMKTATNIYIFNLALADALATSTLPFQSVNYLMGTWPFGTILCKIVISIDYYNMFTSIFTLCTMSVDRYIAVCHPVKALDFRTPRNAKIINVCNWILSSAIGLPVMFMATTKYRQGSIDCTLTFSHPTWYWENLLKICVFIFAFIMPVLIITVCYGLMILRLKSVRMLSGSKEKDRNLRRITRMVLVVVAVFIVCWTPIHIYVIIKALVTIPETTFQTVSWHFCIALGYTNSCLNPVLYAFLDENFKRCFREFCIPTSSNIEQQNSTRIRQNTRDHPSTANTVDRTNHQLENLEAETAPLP

M2 (h) = target: T3, M2 (h) (Homo sapiens, UniProt P08172); test: M2 (h) (antagonist radioligand); settings: read-out: Inhibition M2 (h) (antagonist radioligand)
T3 sequence (P08172 1-466): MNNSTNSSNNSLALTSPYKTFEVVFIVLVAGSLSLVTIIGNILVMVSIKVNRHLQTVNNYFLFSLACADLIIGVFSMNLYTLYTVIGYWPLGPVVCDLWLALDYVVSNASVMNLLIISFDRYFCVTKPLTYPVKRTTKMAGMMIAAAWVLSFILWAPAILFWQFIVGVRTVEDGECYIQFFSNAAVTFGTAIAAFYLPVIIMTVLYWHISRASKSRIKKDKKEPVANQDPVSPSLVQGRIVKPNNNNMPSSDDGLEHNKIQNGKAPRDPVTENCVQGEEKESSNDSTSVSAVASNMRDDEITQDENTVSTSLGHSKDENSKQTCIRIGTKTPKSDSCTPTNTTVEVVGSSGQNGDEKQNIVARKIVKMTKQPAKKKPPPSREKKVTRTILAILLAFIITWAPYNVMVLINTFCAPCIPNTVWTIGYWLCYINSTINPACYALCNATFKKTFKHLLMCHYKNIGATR

Cl- channel (GABA-gated) = Cl- channel (GABA-gated) (antagonist radioligand); settings: 10 µM
[1] = target: T4, MAO-A (h) monoamine oxydase A (Homo sapiens, UniProt P21397); test: MAO-A (h) monoamine oxydase A, enzymatic assay; settings: read-out: Inhibition MAO-A (h) monoamine oxydase A, enzymatic assay
T4 sequence (P21397 1-527): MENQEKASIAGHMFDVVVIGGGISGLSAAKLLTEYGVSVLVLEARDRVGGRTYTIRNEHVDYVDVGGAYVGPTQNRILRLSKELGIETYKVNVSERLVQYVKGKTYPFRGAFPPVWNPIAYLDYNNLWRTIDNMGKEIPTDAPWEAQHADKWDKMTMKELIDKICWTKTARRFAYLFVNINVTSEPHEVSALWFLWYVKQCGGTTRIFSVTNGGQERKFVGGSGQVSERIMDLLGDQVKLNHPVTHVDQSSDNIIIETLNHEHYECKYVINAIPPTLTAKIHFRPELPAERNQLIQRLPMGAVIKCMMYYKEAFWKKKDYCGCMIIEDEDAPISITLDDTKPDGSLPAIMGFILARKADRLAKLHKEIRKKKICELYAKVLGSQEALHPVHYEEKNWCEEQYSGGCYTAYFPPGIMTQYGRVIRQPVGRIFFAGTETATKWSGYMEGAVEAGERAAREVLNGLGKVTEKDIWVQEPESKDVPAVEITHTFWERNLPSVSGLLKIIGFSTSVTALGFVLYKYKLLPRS

Chain of 5-HT transporter (h) (P31645 whole entry): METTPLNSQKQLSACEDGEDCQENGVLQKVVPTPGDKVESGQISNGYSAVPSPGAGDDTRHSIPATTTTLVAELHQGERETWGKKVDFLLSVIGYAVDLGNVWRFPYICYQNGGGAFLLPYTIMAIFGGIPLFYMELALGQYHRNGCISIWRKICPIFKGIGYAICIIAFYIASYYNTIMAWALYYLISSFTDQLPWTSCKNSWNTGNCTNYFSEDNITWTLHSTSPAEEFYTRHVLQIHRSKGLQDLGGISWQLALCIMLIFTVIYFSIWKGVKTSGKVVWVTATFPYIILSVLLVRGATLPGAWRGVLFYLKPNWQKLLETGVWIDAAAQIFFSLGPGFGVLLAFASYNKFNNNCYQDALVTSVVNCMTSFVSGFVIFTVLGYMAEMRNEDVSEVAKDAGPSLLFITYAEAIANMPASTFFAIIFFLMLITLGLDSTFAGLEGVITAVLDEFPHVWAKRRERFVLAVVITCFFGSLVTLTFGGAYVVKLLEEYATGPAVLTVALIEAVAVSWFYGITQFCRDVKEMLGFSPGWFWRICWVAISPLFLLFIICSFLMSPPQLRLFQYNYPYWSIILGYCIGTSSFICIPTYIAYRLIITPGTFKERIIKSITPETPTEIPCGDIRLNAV

Structure (SMILES)	inhibition at 10 µM (5-HT transporter (h)) [%]	inhibition at 10 µM (A1 (h)) [%]	inhibition at 10 µM (COX2(h)) [%]	inhibition at 10 µM (mu (MOP) (h)) [%]	inhibition at 10 µM (M2 (h)) [%]	Inhibition Cl- channel (GABA-gated) (antagonist radioligand) (Cl- channel (GABA-gated))	inhibition at 10 µM [1] [%]
O=C(O[C@H](CO)C(F)(F)F)N1CC2(CC(CC3=C4C=CC=[N+]4[B-](F)(F)n4cccc43)C2)C1 [Compound 1]	13	-3.9	45.5	4	35.1	41,90%	22.6
O=C(OC(C(F)(F)F)C(F)(F)F)N1CC2(CC(CC3=C4C=CC=[N+]4[B-](F)(F)n4cccc43)C2)C1 [Compound 2]	-4.8	4.4	31.9	-0.4	22.2	51,90%	-1.3
O=C(OC(C(F)(F)F)C(F)(F)F)N1CC2(CC(CC3=C4C=CC(c5ccc[nH]5)=[N+]4[B-](F)(F)n4cccc43)C2)C1 [Compound 2a]	-12.9	-1	49.5	7.6	-13.1	40,80%	-3
O=C1CO[C@H]2CCN(C(=O)N3CC4(CC(CC5=C6C=CC(c7ccc[nH]7)=[N+]6[B-](F)(F)n6cccc65)C4)C3)C[C@H]2N1 [Compound 4a]	-9.6	8.7	48.9	11	-4.9	40,30%	4.3
O=C(N1CC2(CC(CC3=C4C=CC=[N+]4[B-](F)(F)n4cccc43)C2)C1)N1CC2(CC(n3cnc(C4CC4)n3)C2)C1 [Compound 5]	56.5	1.3	23.8	8.5	33.2	20,90%	4.4
